Where two headings read alike, the source gives them in different places.
Target: T1, His-Tagged hOGA (human O-GlcNAcase) (Homo sapiens, UniProt O60502)
T1 sequence (O60502 1-916): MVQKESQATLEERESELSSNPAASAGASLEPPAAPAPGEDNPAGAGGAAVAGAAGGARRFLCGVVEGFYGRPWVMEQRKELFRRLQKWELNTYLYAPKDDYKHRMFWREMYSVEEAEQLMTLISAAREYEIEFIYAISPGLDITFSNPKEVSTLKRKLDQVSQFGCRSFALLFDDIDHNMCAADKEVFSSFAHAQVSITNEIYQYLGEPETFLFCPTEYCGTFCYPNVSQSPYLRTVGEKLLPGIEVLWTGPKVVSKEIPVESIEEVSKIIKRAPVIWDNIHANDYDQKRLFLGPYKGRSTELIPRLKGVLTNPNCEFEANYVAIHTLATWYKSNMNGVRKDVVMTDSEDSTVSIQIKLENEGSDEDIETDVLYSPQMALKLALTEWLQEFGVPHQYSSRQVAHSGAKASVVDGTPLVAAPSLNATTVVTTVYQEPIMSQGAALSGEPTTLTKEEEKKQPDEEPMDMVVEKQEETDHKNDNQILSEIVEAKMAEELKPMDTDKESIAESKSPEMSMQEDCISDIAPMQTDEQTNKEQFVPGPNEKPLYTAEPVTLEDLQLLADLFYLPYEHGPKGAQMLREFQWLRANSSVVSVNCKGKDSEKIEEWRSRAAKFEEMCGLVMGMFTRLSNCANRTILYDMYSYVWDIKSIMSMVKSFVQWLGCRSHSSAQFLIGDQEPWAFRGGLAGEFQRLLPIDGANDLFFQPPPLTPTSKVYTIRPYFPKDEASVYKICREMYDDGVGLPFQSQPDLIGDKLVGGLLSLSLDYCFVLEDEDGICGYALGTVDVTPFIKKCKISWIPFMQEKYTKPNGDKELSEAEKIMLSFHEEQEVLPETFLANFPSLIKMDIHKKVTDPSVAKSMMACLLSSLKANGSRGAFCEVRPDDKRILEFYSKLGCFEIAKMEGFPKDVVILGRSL
Assay: biochemical
Method: Human O-GlcNAcase Enzyme Inhibition Assay
The following reaction components were added to a final volume of 10 μL in McIlvaine's Buffer (pH 6.5):
20 nM His-Tagged hOGA and 10 μM Fluoroscein mono-beta-D-(2-deoxy-2-N-acetyl) glucopyranoside (FL-GlcNAc; Marker Gene Technologies Inc, Part #M1485). […] The amount of fluorescence measured was plotted against the concentration of inhibitor to produce a sigmoidal dose response curve, from which an IC50 was calculated.

[1] = read-out: OGA enzyme inhibition (IC50)

Row | IC50 [1] [µM] | SMILES | IC50 [µM] | further results
1 |  | CCNC1=N[C@@H]2[C@@H](O)[C@H](O)[C@@H](C(O)Cc3ccccc3)O[C@@H]2S1 (stereo partly drawn) [compound 52] | 0.1 to 0.5 | 
2 |  | CCNC1=N[C@@H]2[C@@H](O)[C@H](O)[C@@H](Cn3nnnc3C(=O)c3ccccc3)O[C@@H]2S1 [compound 105] | > 1 | 
3 |  | CCNC1=N[C@@H]2[C@@H](O)[C@H](O)[C@@H](C(=O)Nc3ccccc3)O[C@@H]2S1 [compound no. 31, (3aR,5S,6S,7R,7aR)-2-(ethylamino)-6,7-dihydroxy-N-phenyl-5,6,7,7a-tetrahydro-3aH-pyrano[3,2-d][1,3]thiazole-5-carboxamide] | > 1 | 
4 |  | CCNC1=N[C@@H]2[C@@H](OC)[C@H](OC)[C@@H](COC)O[C@@H]2S1 [compound no. 13, (3aR,5R,6S,7R,7aR)—N-ethyl-6,7-dimethoxy-5-(methoxymethyl)-5,6,7,7a-tetrahydro-3aH-pyrano[3,2-d][1,3]thiazol-2-amine] | > 1 | 
5 | > 1 | CCNC1=N[C@@H]2[C@@H](O)[C@H](O)[C@@H](C(=O)CCc3ccccc3)O[C@@H]2S1 [compound no. 59, 1-[(3aR,5S,6S,7R,7aR)-2-(ethylamino)-6,7-dihydroxy-5,6,7,7a-tetrahydro-3aH-pyrano[3,2-d][1,3]thiazol-5-yl]-3-phenylpropan-1-one] |  | 
6 |  | CCNC1=N[C@@H]2[C@@H](O)[C@H](O)[C@@H](Cn3cc(Cn4nc(C)nc4C)nn3)O[C@@H]2S1 [compound 96] | < 0.1 | 
7 | > 1 | CCN(C)C1=N[C@@H]2[C@@H](O)[C@H](O)[C@@H](C(=O)O)O[C@@H]2S1 [compound no. 36, (3aR,5S,6S,7R,7aR)-2-[ethyl(methyl)amino]-6,7-dihydroxy-5,6,7,7a-tetrahydro-3aH-pyrano[3,2-d][1,3]thiazole-5-carboxylic acid] |  | 
8 |  | CCNC1=N[C@@H]2[C@@H](O)[C@H](O)[C@@H](Cn3cc(COc4ccccc4C(C)O)nn3)O[C@@H]2S1 (stereo partly drawn) [compound 85] | 0.1 to 0.5 | 
9 | 0.5 to 1 | CCNC1=N[C@@H]2[C@@H](O)[C@H](O)[C@@H](CNCc3ccccc3)O[C@@H]2S1 [compound no. 48, (3aR,5R,6S,7R,7aR)-5-[(benzylamino)methyl]-2-(ethylamino)-5,6,7,7a-tetrahydro-3aH-pyrano[3,2-d][1,3]thiazole-6,7-diol] |  | 
10 |  | CCN(C(=O)Oc1ccccc1)C1=N[C@@H]2[C@@H](O)[C@H](O)[C@@H](CO)O[C@@H]2S1 [compound no. 63, Phenyl-[(3aR,5R,6S,7R,7aR)-6,7-dihydroxy-5-(hydroxymethyl)-5,6,7,7a-tetrahydro-3aH-pyrano[3,2-d][1,3]thiazol-2-yl]ethylcarbamate] | 0.1 to 0.5 | 
11 |  | CCNC1=N[C@@H]2[C@@H](O)[C@H](O)[C@@H](Cn3cc(Cn4c(C(F)(F)F)nc5ccccc54)nn3)O[C@@H]2S1 [compound 95] | < 0.1 | 
12 |  | CCN(C(=O)OC)C1=N[C@@H]2[C@@H](O)[C@H](O)[C@@H](CO)O[C@@H]2S1 [compound no. 49, Methyl-[(3aR,5R,6S,7R,7aR)-6,7-dihydroxy-5-(hydroxymethyl)-5,6,7,7a-tetrahydro-3aH-pyrano[3,2-d][1,3]thiazol-2-yl]ethylcarbamate] | < 0.1 | 
13 |  | CCNC1=N[C@@H]2[C@@H](OC)[C@H](O)[C@@H](CO)O[C@@H]2S1 [compound no. 15, (3aR,5R,6S,7R,7aR)-2-(ethylamino)-5-(hydroxymethyl)-7-methoxy-5,6,7,7a-tetrahydro-3aH-pyrano[3,2-d][1,3]thiazol-6-ol] | > 1 | 
14 | 0.1 to 0.5 | CCNC1=N[C@@H]2[C@@H](O)[C@H](O)[C@@H](Cn3cc(COc4cccc(N)c4)nn3)O[C@@H]2S1 [compound 101] |  | 
15 |  | CCN(C(=O)OCc1ccccc1)C1=N[C@@H]2[C@@H](O)[C@H](O)[C@@H](CO)O[C@@H]2S1 [compound no. 62, benzyl [(3aR,5R,6S,7R,7aR)-6,7-dihydroxy-5-(hydroxymethyl)-5,6,7,7a-tetrahydro-3aH-pyrano[3,2-d][1,3]thiazol-2-yl]ethylcarbamate] |  | IC50 (20 nM His-Tagged hOGA, 10 μM FL-GlcNAc, pH 6.5, 60 min room temperature, read-out: OGA enzyme inhibition (IC50)): 0.1 to 0.5 µM
16 |  | CCNC1=N[C@@H]2[C@@H](O)[C@H](O)[C@@H](Cn3cc(C4(c5ccccc5)CCCC4)nn3)O[C@@H]2S1 [compound 100] | 0.1 to 0.5 | 
17 |  | CCNC1=N[C@@H]2[C@@H](O)[C@H](O)[C@@H](C(=O)CCCc3ccccc3)O[C@@H]2S1 [compound no. 60, 1-[(3aR,5S,6S,7R,7aR)-2-(ethylamino)-6,7-dihydroxy-5,6,7,7a-tetrahydro-3aH-pyrano[3,2-d][1,3]thiazol-5-yl]-4-phenylbutan-1-one] | > 1 | 
18 | > 1 | CCNC1=N[C@@H]2[C@@H](O)[C@H](O)[C@@H](COCc3ccccc3)O[C@@H]2S1 [compound no. 8, (3aR,5R,6S,7R,7aR)-5-[(benzyloxy)methyl]-2-(ethylamino)-5,6,7,7a-tetrahydro-3aH-pyrano[3,2-d][1,3]thiazole-6,7-diol] |  | 
19 |  | CCNC1=N[C@@H]2[C@@H](O)[C@H](O)[C@@H](Cn3cc(COc4ccccc4CNC)nn3)O[C@@H]2S1 [compound 83] | 0.5 to 1 | 
20 |  | CCNC1=N[C@@H]2[C@@H](O)[C@H](O)[C@@H](C(=O)NCCc3ccc(-c4ccccc4)cc3)O[C@@H]2S1 [compound no. 23, (3aR,5S,6S,7R,7aR)—N-(2-biphenyl-4-ylethyl)-2-(ethylamino)-6,7-dihydroxy-5,6,7,7a-tetrahydro-3aH-pyrano[3,2-d][1,3]thiazole-5-carboxamide] | > 1 | 
21 | > 1 | CCNC1=N[C@@H]2[C@@H](O)[C@H](O)[C@@H](C(=O)O)O[C@@H]2S1 [compound no. 9, (3aR,5S,6S,7R,7aR)-2-(ethylamino)-6,7-dihydroxy-5,6,7,7a-tetrahydro-3aH-pyrano[3,2-d]thiazole-5-carboxylic acid] |  | 
22 |  | CCNC1=N[C@@H]2[C@@H](O)[C@H](O)[C@@H](C=O)O[C@@H]2S1 [compound no. 47, (3aR,5S,6S,7R,7aR)-2-(ethylamino)-6,7-dihydroxy-5,6,7,7a-tetrahydro-3aH-pyrano[3,2-d][1,3]thiazole-5-carbaldehyde] | < 0.1 | 
23 |  | CCNC1=N[C@@H]2[C@@H](O)[C@H](O)[C@@H](Cn3cc(Cn4ccnc4-c4cccs4)nn3)O[C@@H]2S1 [compound 97] | < 0.1 | 
24 | > 1 | CCNC1=N[C@@H]2[C@@H](O)[C@H](O)[C@@H](C(=O)N(C)OC)O[C@@H]2S1 [compound no. 45, (3aR,5S,6S,7R,7aR)-2-(ethylamino)-6,7-dihydroxy-N-methoxy-N-methyl-5,6,7,7a-tetrahydro-3aH-pyrano[3,2-d][1,3]thiazole-5-carboxamide] |  | 
25 |  | CCNC1=N[C@@H]2[C@@H](O)[C@H](O)[C@@H](Cn3cc(-c4cn(S(=O)(=O)c5ccccc5)c5ccccc45)nn3)O[C@@H]2S1 [compound 98] | < 0.1 | 
26 | > 1 | CCNC1=N[C@@H]2[C@@H](O)[C@H](O)[C@@H](C(=O)OC)O[C@@H]2S1 [compound no. 42, Methyl-(3aR,5S,6S,7R,7aR)-2-(ethylamino)-6,7-dihydroxy-5,6,7,7a-tetrahydro-3aH-pyrano[3,2-d][1,3]thiazole-5-carboxylate] |  | 
27 |  | CCNC1=N[C@@H]2[C@@H](O)[C@H](O)[C@@H](C(=O)N(C)C)O[C@@H]2S1 [compound no. 28, (3aR,5S,6S,7R,7aR)-2-(ethylamino)-6,7-dihydroxy-N,N-dimethyl-5,6,7,7a-tetrahydro-3aH-pyrano[3,2-d][1,3]thiazole-5-carboxamide] | > 1 | 
28 |  | CCNC1=N[C@@H]2[C@@H](O)[C@H](O)[C@@H](C(=O)NCCc3ccc(Oc4ccccc4)cc3)O[C@@H]2S1 [compound no. 33, (3aR,5S,6S,7R,7aR)-2-(ethylamino)-6,7-dihydroxy-N-[2-(4-phenoxyphenyl)ethyl]-5,6,7,7a-tetrahydro-3aH-pyrano[3,2-d][1,3]thiazole-5-carboxamide] | > 1 | 
29 |  | CCNC1=N[C@@H]2[C@@H](O)[C@H](O)[C@@H]([C@H](O)CCCc3ccccc3)O[C@@H]2S1 [compound no. 55, (3aR,5R,6S,7R,7aR)-2-(ethylamino)-5-((R)1-hydroxy-4-phenylbutyl)-5,6,7,7a-tetrahydro-3aH-pyrano[3,2-d][1,3]thiazole-6,7-diol] | > 1 | 
30 | 0.1 to 0.5 | CCNC1=N[C@@H]2[C@@H](O)[C@H](O)[C@@H](Cn3cc(COC)nn3)O[C@@H]2S1 [compound 11, (3aR,5R,6S,7R,7aR)-2-(ethylamino)-5-{[4-(methoxymethyl)-1H-1,2,3-triazol-1-yl]methyl}-5,6,7,7a-tetrahydro-3aH-pyrano[3,2-d][1,3]thiazole-6,7-diol] |  | 
